# Source: patent US20060069132A1, “Azolecarboxamide herbicides” (priority 2004, published 2006)
# Assays:
# chickweed = assay: Test C postemergence herbicide test; format: in vivo, Stellaria media
# How it was run: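 Greenhouse test with a 12–14 day hold after application and visual comparison with controls. Emerged plants were 1- to 4-leaf stage (2–18 cm) when sprayed postemergence, and the paddy barnyardgrass was at 2 leaves under flooded conditions. 100 = complete control.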
# large crabgrass = assay: Test A pre-/postemergence herbicide test; format: in vivo, Digitaria sanguinalis; conditions: for Plant response rating, Crabgrass, Large: Postemergence; for Crabgrass, Large plant response rating: Preemergence
# How it was run: (§1)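 Both application timings were run together: directed soil spray over freshly planted seeds in sandy loam, and runoff spray onto 2–10 cm seedlings. Evaluation after ~10 days in greenhouse used a 0–100 visual scale versus untreated controls.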
# rice = assay: Test C flooded paddy test; format: in vivo, Oryza sativa; conditions: for Plant response rating, Rice: visual rating after 12 to 14 days
# How it was run: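 Postemergence sprays applied to plants 2 to 18 cm tall (1- to 4-leaf stage); paddy species grown to 2-leaf stage under flooding. After 12 to 14 days in greenhouse, visual rating versus untreated controls on 0–100 scale (0 no effect, 100 complete control).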
# kochia = assay: Test C pre-/postemergence herbicide test; format: in vivo, Kochia scoparia; conditions: for Kochia plant response rating: 500 g ai/ha
# How it was run: (§2)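 Emerged plants at the 1- to 4-leaf stage (2–18 cm), or freshly planted seeds, received test chemicals in a non-phytotoxic solvent mixture with surfactant. Response was visually scored against controls after 12 to 14 days in the greenhouse, on a 0 (no effect) to 100 (complete control) scale.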
# yellow nutsedge = assay: Test C pre-/postemergence herbicide test; format: in vivo, Cyperus esculentus; conditions: for Nutsedge, Yellow plant response rating: 500 g ai/ha
# How it was run: as §2
# giant foxtail [1] = assay: Test A pre-/postemergence herbicide test; format: in vivo, Setaria faberi; conditions: for Plant response rating, Foxtail, Giant: Postemergence; for Foxtail, Giant plant response rating: Preemergence
# How it was run: as §1
# giant foxtail [2] = assay: Test C pre-/postemergence herbicide test; format: in vivo, Setaria faberi; conditions: for Foxtail, Giant plant response rating: 500 g ai/ha
# How it was run: as §2
# redroot pigweed = assay: Test A pre-/postemergence herbicide test; format: in vivo, Amaranthus retroflexus; conditions: for Plant response rating, Pigweed: Postemergence; for Pigweed plant response rating: Preemergence
# How it was run: as §1
# johnsongrass = assay: Test C pre-/postemergence herbicide test; format: in vivo, Sorghum halepense; conditions: for Johnsongrass plant response rating: 500 g ai/ha
# How it was run: as §2
# Surinam grass = assay: Test C pre-/postemergence herbicide test; format: in vivo, Urochloa decumbens; conditions: for Surinam Grass plant response rating: 500 g ai/ha
# How it was run: as §2
# [3] = Postemergence, 125 g ai/ha, scale 0 to 100, 0 no effect, 100 complete control
# [4] = Postemergence, 250 g ai/ha, scale 0 to 100, 0 no effect, 100 complete control
# [5] = postemergence, 62 g ai/ha, scale 0 to 100
# [6] = 500 g ai/ha, 0 to 100 scale, 0 no effect, 100 complete control
# [7] = 2000 g ai/ha, 0 to 100 scale, 0 no effect, 100 complete control
# [8] = 500 g ai/ha, visual rating, 0 to 100 scale (0 no effect, 100 complete control)
# [9] = 125 g ai/ha, scale 0 (no effect) to 100 (complete control), visual, 12 to 14 days, preemergence
# [10] = 250 g ai/ha, scale 0 to 100 (0 no effect, 100 complete control), visual, 12 to 14 days, preemergence
# [11] = Preemergence, scale 0 to 100, 0 no effect, 100 complete control
smiles,measurement,setting,value
C#CCNC(=O)c1cccc(NC(=O)c2cc(C(C)(C)C)nn2CC)c1 [Compound 47],Chickweed plant response rating,"chickweed; Postemergence, 500 g ai/ha, scale 0 to 100",100
same,"Plant response rating, Chickweed",chickweed; [3],90
same,"Plant response rating, Chickweed",chickweed; [4],90
same,"Plant response rating, Chickweed",chickweed; [5],90
same,"Plant response rating, Crabgrass, Large",large crabgrass; [6],85
same,"Plant response rating, Crabgrass, Large",large crabgrass; [7],100
same,"Crabgrass, Large plant response rating",large crabgrass; [8],55
same,"Crabgrass, Large plant response rating",large crabgrass; [7],90
same,Rice plant response rating,"rice; 62 g ai/ha, scale 0 to 100 (0 no effect, 100 complete control)",0
same,Rice plant response rating,"rice; 125 g ai/ha, scale of 0 to 100, 0 is no effect, 100 is complete control",20
same,"Plant response rating, Rice","rice; 250 g ai/ha, scale 0 to 100 (0 no effect, 100 complete control)",20
same,"Plant response rating, Rice","rice; 500 g ai/ha, scale 0 to 100 (0 no effect, 100 complete control)",50
same,"Plant response rating (0 = no effect, 100 = complete control), Kochia","kochia; 62 g ai/ha, preemergence",10
same,"Plant response rating, Kochia",kochia; [9],10
same,"Plant response rating, Kochia",kochia; [10],10
same,Kochia plant response rating,"kochia; Postemergence, scale 0 to 100",100
same,"Plant response rating, Kochia",kochia; [3],100
same,"Plant response rating, Kochia",kochia; [4],100
same,Kochia plant response rating,kochia; [11],40
same,"Plant response rating, Kochia",kochia; [5],100
same,"Plant response rating (0 = no effect, 100 = complete control), Nutsedge, Yellow","yellow nutsedge; 62 g ai/ha, preemergence",0
same,"Plant response rating, Nutsedge, Yellow",yellow nutsedge; [9],0
same,"Plant response rating, Nutsedge, Yellow",yellow nutsedge; [10],0
same,"Nutsedge, Yellow plant response rating","yellow nutsedge; Postemergence, scale 0 to 100",30
same,"Plant response rating, Nutsedge, Yellow",yellow nutsedge; [4],30
same,"Nutsedge, Yellow plant response rating",yellow nutsedge; [11],0
same,"Plant response rating, Nutsedge, Yellow",yellow nutsedge; [5],20
same,"Plant response rating, Foxtail, Giant",giant foxtail [1]; [6],90
same,"Plant response rating, Foxtail, Giant",giant foxtail [1]; [7],85
same,"Foxtail, Giant plant response rating",giant foxtail [1]; [8],90
same,"Foxtail, Giant plant response rating",giant foxtail [1]; [7],100
same,"Plant response rating (0 = no effect, 100 = complete control), Foxtail, Giant","giant foxtail [2]; 62 g ai/ha, preemergence",40
same,"Plant response rating, Foxtail, Giant",giant foxtail [2]; [9],70
same,"Plant response rating, Foxtail, Giant",giant foxtail [2]; [10],80
same,"Foxtail, Giant plant response rating","giant foxtail [2]; Postemergence, scale 0 to 100",70
same,"Plant response rating, Foxtail, Giant",giant foxtail [2]; [3],60
same,"Plant response rating, Foxtail, Giant",giant foxtail [2]; [4],60
same,"Foxtail, Giant plant response rating",giant foxtail [2]; [11],90
same,"Plant response rating, Foxtail, Giant",giant foxtail [2]; [5],60
same,"Plant response rating, Pigweed",redroot pigweed; [6],100
same,"Plant response rating, Pigweed",redroot pigweed; [7],100
same,Pigweed plant response rating,redroot pigweed; [8],100
same,Pigweed plant response rating,redroot pigweed; [7],100
same,"Plant response rating (0 = no effect, 100 = complete control), Johnsongrass","johnsongrass; 62 g ai/ha, preemergence",20
same,"Plant response rating, Johnsongrass",johnsongrass; [9],100
same,"Plant response rating, Johnsongrass",johnsongrass; [10],100
same,Johnsongrass plant response rating,"johnsongrass; Postemergence, scale 0 to 100",90
same,"Plant response rating, Johnsongrass",johnsongrass; [3],30
same,"Plant response rating, Johnsongrass",johnsongrass; [4],90
same,Johnsongrass plant response rating,johnsongrass; [11],100
same,"Plant response rating, Johnsongrass",johnsongrass; [5],30
same,"Plant response rating (0 = no effect, 100 = complete control), Surinam Grass","Surinam grass; 62 g ai/ha, preemergence",0
same,"Plant response rating, Surinam Grass",Surinam grass; [9],10
same,"Plant response rating, Surinam Grass",Surinam grass; [10],60
same,Surinam Grass plant response rating,"Surinam grass; Postemergence, scale 0 to 100",70
same,"Plant response rating, Surinam Grass",Surinam grass; [4],60
same,Surinam Grass plant response rating,Surinam grass; [11],80
same,"Plant response rating, Surinam Grass",Surinam grass; [5],30
